Measurements published in the NIST ThermoML archive (doi:10.1007/s10765-012-1352-4).

Assay: xn = mol fraction of the nth substance listed
Settings: Gas, Loschmidt diffusion cell combined with holoholographic interferometry

[Ne] [neon] + [Ar]
binary diffusion coefficient [m2/s]
Settings	100 kPa	200 kPa	500 kPa	1000 kPa
293.15 K, x2 = 0.1	3.14e-10	1.57e-10	6.34e-11	3.1e-11
293.15 K, x2 = 0.12	3.14e-10	1.57e-10	6.32e-11	3.1e-11
293.15 K, x2 = 0.14	3.13e-10	1.57e-10	6.31e-11	3.1e-11
293.15 K, x2 = 0.16	3.13e-10	1.57e-10	6.3e-11	3.09e-11
293.15 K, x2 = 0.18	3.12e-10	1.56e-10	6.29e-11	3.09e-11
293.15 K, x2 = 0.2	3.11e-10	1.56e-10	6.28e-11	3.08e-11
293.15 K, x2 = 0.22	3.11e-10	1.56e-10	6.27e-11	3.08e-11
293.15 K, x2 = 0.24	3.1e-10	1.56e-10	6.27e-11	3.07e-11
293.15 K, x2 = 0.26	3.1e-10	1.56e-10	6.26e-11	3.07e-11
293.15 K, x2 = 0.28	3.1e-10	1.56e-10	6.25e-11	3.06e-11
293.15 K, x2 = 0.3	3.09e-10	1.56e-10	6.24e-11	3.06e-11
293.15 K, x2 = 0.32	3.08e-10	1.55e-10	6.23e-11	3.05e-11
293.15 K, x2 = 0.34	3.08e-10	1.55e-10	6.22e-11	3.04e-11
293.15 K, x2 = 0.36	3.07e-10	1.55e-10	6.21e-11	3.03e-11
293.15 K, x2 = 0.38	3.08e-10	1.54e-10	6.2e-11	3.02e-11
293.15 K, x2 = 0.4	3.07e-10	1.54e-10	6.19e-11	3.01e-11
293.15 K, x2 = 0.6	3.1e-10	1.56e-10	6.31e-11	3.13e-11
293.15 K, x2 = 0.62	3.09e-10	1.56e-10	6.29e-11	3.13e-11
293.15 K, x2 = 0.64	3.09e-10	1.56e-10	6.28e-11	3.13e-11
293.15 K, x2 = 0.66	3.09e-10	1.56e-10	6.28e-11	3.12e-11
293.15 K, x2 = 0.68	3.09e-10	1.56e-10	6.28e-11	3.12e-11
293.15 K, x2 = 0.7	3.09e-10	1.56e-10	6.28e-11	3.12e-11
293.15 K, x2 = 0.72	3.1e-10	1.56e-10	6.28e-11	3.12e-11
293.15 K, x2 = 0.74	3.1e-10	1.56e-10	6.28e-11	3.12e-11
293.15 K, x2 = 0.76	3.1e-10	1.56e-10	6.28e-11	3.13e-11
293.15 K, x2 = 0.78	3.1e-10	1.57e-10	6.28e-11	3.13e-11
293.15 K, x2 = 0.8	3.1e-10	1.57e-10	6.28e-11	3.13e-11
293.15 K, x2 = 0.82	3.1e-10	1.57e-10	6.29e-11	3.13e-11
293.15 K, x2 = 0.84	3.11e-10	1.57e-10	6.29e-11	3.13e-11
293.15 K, x2 = 0.86	3.11e-10	1.57e-10	6.29e-11	3.13e-11
293.15 K, x2 = 0.88	3.11e-10	1.57e-10	6.3e-11	3.14e-11
293.15 K, x2 = 0.9	3.11e-10	1.57e-10	6.3e-11	3.14e-11
313.15 K, x2 = 0.1	3.56e-10	1.78e-10	7.02e-11	3.5e-11
313.15 K, x2 = 0.12	3.54e-10	1.77e-10	7e-11	3.49e-11
313.15 K, x2 = 0.14	3.53e-10	1.77e-10	6.99e-11	3.49e-11
313.15 K, x2 = 0.16	3.52e-10	1.77e-10	6.98e-11	3.48e-11
313.15 K, x2 = 0.18	3.52e-10	1.76e-10	6.97e-11	3.47e-11
313.15 K, x2 = 0.2	3.51e-10	1.76e-10	6.96e-11	3.47e-11
313.15 K, x2 = 0.22	3.51e-10	1.76e-10	6.95e-11	3.46e-11
313.15 K, x2 = 0.24	3.49e-10	1.75e-10	6.94e-11	3.45e-11
313.15 K, x2 = 0.26	3.49e-10	1.75e-10	6.92e-11	3.44e-11
313.15 K, x2 = 0.28	3.48e-10	1.75e-10	6.91e-11	3.44e-11
313.15 K, x2 = 0.3	3.47e-10	1.74e-10	6.89e-11	3.42e-11
313.15 K, x2 = 0.32	3.47e-10	1.74e-10	6.88e-11	3.41e-11
313.15 K, x2 = 0.34	3.46e-10	1.74e-10	6.86e-11	3.4e-11
313.15 K, x2 = 0.36	3.46e-10	1.74e-10	6.84e-11	3.39e-11
313.15 K, x2 = 0.38	3.45e-10	1.73e-10	6.82e-11	3.37e-11
313.15 K, x2 = 0.4	3.44e-10	1.73e-10	6.79e-11	3.35e-11
313.15 K, x2 = 0.6	3.52e-10	1.75e-10	7.09e-11	3.52e-11
313.15 K, x2 = 0.62	3.51e-10	1.75e-10	7.08e-11	3.51e-11
313.15 K, x2 = 0.64	3.51e-10	1.75e-10	7.07e-11	3.5e-11
313.15 K, x2 = 0.66	3.5e-10	1.75e-10	7.06e-11	3.5e-11
313.15 K, x2 = 0.68	3.5e-10	1.75e-10	7.06e-11	3.5e-11
313.15 K, x2 = 0.7	3.5e-10	1.75e-10	7.05e-11	3.5e-11
313.15 K, x2 = 0.72	3.5e-10	1.75e-10	7.05e-11	3.5e-11
313.15 K, x2 = 0.74	3.49e-10	1.75e-10	7.05e-11	3.5e-11
313.15 K, x2 = 0.76	3.49e-10	1.75e-10	7.06e-11	3.5e-11
313.15 K, x2 = 0.78	3.49e-10	1.75e-10	7.06e-11	3.5e-11
313.15 K, x2 = 0.8	3.49e-10	1.75e-10	7.06e-11	3.5e-11
313.15 K, x2 = 0.82	3.49e-10	1.75e-10	7.06e-11	3.5e-11
313.15 K, x2 = 0.84	3.49e-10	1.76e-10	7.07e-11	3.5e-11
313.15 K, x2 = 0.86	3.5e-10	1.76e-10	7.07e-11	3.5e-11
313.15 K, x2 = 0.88	3.51e-10	1.76e-10	7.07e-11	3.51e-11
313.15 K, x2 = 0.9	3.51e-10	1.76e-10	7.08e-11	3.51e-11
333.15 K, x2 = 0.1	3.99e-10	1.97e-10	7.82e-11	3.91e-11
333.15 K, x2 = 0.12	3.97e-10	1.97e-10	7.8e-11	3.9e-11
333.15 K, x2 = 0.14	3.95e-10	1.96e-10	7.79e-11	3.89e-11
333.15 K, x2 = 0.16	3.94e-10	1.96e-10	7.77e-11	3.88e-11
333.15 K, x2 = 0.18	3.93e-10	1.95e-10	7.76e-11	3.87e-11
333.15 K, x2 = 0.2	3.91e-10	1.95e-10	7.74e-11	3.86e-11
333.15 K, x2 = 0.22	3.91e-10	1.95e-10	7.72e-11	3.86e-11
333.15 K, x2 = 0.24	3.89e-10	1.94e-10	7.7e-11	3.85e-11
333.15 K, x2 = 0.26	3.89e-10	1.94e-10	7.69e-11	3.84e-11
333.15 K, x2 = 0.28	3.87e-10	1.93e-10	7.67e-11	3.83e-11
333.15 K, x2 = 0.3	3.86e-10	1.93e-10	7.65e-11	3.82e-11
333.15 K, x2 = 0.32	3.86e-10	1.93e-10	7.63e-11	3.81e-11
333.15 K, x2 = 0.34	3.84e-10	1.92e-10	7.6e-11	3.8e-11
333.15 K, x2 = 0.36	3.83e-10	1.91e-10	7.57e-11	3.79e-11
333.15 K, x2 = 0.38	3.83e-10	1.91e-10	7.53e-11	3.77e-11
333.15 K, x2 = 0.4	3.8e-10	1.9e-10	7.48e-11	3.75e-11
333.15 K, x2 = 0.6	3.87e-10	1.94e-10	7.82e-11	3.91e-11
333.15 K, x2 = 0.62	3.85e-10	1.94e-10	7.81e-11	3.91e-11
333.15 K, x2 = 0.64	3.84e-10	1.94e-10	7.8e-11	3.9e-11
333.15 K, x2 = 0.66	3.85e-10	1.94e-10	7.8e-11	3.9e-11
333.15 K, x2 = 0.68	3.85e-10	1.94e-10	7.79e-11	3.9e-11
333.15 K, x2 = 0.7	3.85e-10	1.94e-10	7.79e-11	3.89e-11
333.15 K, x2 = 0.72	3.86e-10	1.93e-10	7.79e-11	3.89e-11
333.15 K, x2 = 0.74	3.85e-10	1.94e-10	7.8e-11	3.89e-11
333.15 K, x2 = 0.76	3.86e-10	1.94e-10	7.8e-11	3.9e-11
333.15 K, x2 = 0.78	3.86e-10	1.94e-10	7.8e-11	3.9e-11
333.15 K, x2 = 0.8	3.86e-10	1.94e-10	7.8e-11	3.9e-11
333.15 K, x2 = 0.82	3.86e-10	1.94e-10	7.81e-11	3.9e-11
333.15 K, x2 = 0.84	3.86e-10	1.94e-10	7.81e-11	3.9e-11
333.15 K, x2 = 0.86	3.86e-10	1.94e-10	7.82e-11	3.9e-11
333.15 K, x2 = 0.88	3.86e-10	1.94e-10	7.82e-11	3.91e-11
333.15 K, x2 = 0.9	3.86e-10	1.94e-10	7.82e-11	3.91e-11
